# Assay results from paper PMC5114558, “Reader domain specificity and lysine demethylase-4 family function” (Nature Communications, 2016).
# Positions count from the first letter of the chain named. Like-named read-outs stand apart in the source and are kept apart here. Non-standard residues stand in square brackets, D forms with d. Residues, ends and D or L forms follow the SMILES beside them. *: point of attachment. 5FAM = O=C1OC2(c3ccc(O)cc3Oc3cc(O)ccc32)c2ccc(C(=O)*)cc21; Lys(Me3) = C[N+](C)(C)CCCC[C@H](N)C(=O)O
# Key:
# [1] = target: T1, KDM4A DTD (human KDM4A double tudor domain, 895–1011aa) (Homo sapiens, UniProt O75164); experiment: fluorescence polarization (FP) binding, KDM4A-DTD wild-type
# T1 construct: DNA encoding DTDs (KDM4A 895–1011aa, KDM4B 917–1031aa and KDM4C 877–991aa); (His)6-HaloTag (pFN29) or (His)6 (pET28b); made in house; host or cells: Escherichia coli BL21 (DE3)
# T1 sequence (O75164 895-1011): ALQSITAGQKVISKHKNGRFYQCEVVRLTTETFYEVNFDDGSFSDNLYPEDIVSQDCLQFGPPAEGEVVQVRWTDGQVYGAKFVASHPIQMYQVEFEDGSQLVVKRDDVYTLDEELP
# From the text: (§1) KDM4 protein sequences used in this study correspond to Uniprot ID: O75164 (human KDM4A, isoform 1), O94953 (human KDM4B, isoform1) and Q9H3R0 (human KDM4C, isoform1). Plasmid encoding KDM4A DTD was kindly provided by R-M Xu (Chinese Academy of Sciences). Complementary DNA encoding human KDM4B-DTD was synthesized (Integrated DNA Technologies). Plasmid containing cDNA of full-length KDM4C (clone ID: HsCD00341594) was obtained from Harvard Plasmid Repository. DNA encoding DTDs (KDM4A 895–1011aa, KDM4B 917–1031aa and KDM4C 877–991aa) were cloned into pFN29 (Promega) with N-terminal (His)6-HaloTag or pET28b with N-terminal (His)6 Tag using In-Fusion HD cloning kit (Clontech). Plasmids encoding Xenopus laevis core histones were a generous gift of K. Luger (University of Colorado-Boulder). Site-directed mutagenesis was performed with Q5 Site-Directed Mutagenesis Kit (New England Biolabs).
# (§2) Peptide sequences are given in Supplementary Table 1. […] A no-protein control with only peptide probe was included. Polarization at each concentration was measured as triplicates in 384-well polystyrene black microplates (Thermo Fisher Scientific 262260) by Biotek Synergy H4 multimode plate reader (light source: xenon flash, offset from top: 7 mm, sensitivity: 60%, excitation: 485/20 nm, emission: 528/20 nm, both parallel and perpendicular, normal read speed). Fraction bound (Fb) at each concentration was calculated based on the corresponding polarization values (P): Fbc=(Pc−Pmin)/(Pmax−Pmin), where Pmin is the polarization value of no-protein control and Pmax is the polarization value of the saturation value for that peptide. Dissociation constants (Kd) were derived by KaleidaGraph, Synergy Software (version 4.1.3) using the following equation: Fb=[protein]/([protein]+Kd).
# [2] = target: T2, KDM4C DTD (human KDM4C double tudor domain, 877–991aa) (Homo sapiens, UniProt Q9H3R0); experiment: fluorescence polarization (FP) binding, KDM4C-DTD wild-type; settings: matrix Fig. 1d, pH 7.4, read-out: binding affinity (Kd), KDM4C DTD
# T2 construct: DNA encoding DTDs (KDM4A 895–1011aa, KDM4B 917–1031aa and KDM4C 877–991aa); (His)6-HaloTag (pFN29) or (His)6 (pET28b); made in house; host or cells: Escherichia coli BL21 (DE3)
# T2 sequence (Q9H3R0 877-991): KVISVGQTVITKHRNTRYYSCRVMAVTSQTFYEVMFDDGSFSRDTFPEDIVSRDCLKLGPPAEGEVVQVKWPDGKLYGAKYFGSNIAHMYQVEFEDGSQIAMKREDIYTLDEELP
# From the text: as §1, with “Plasmids encoding Xenopus laevis core histones were a generous gift of K. Luger (University of Colorado-Boulder). Site-directed mutagenesis was performed with Q5 Site-Directed Mutagenesis Kit (New England Biolabs).” left out
# (§3) Peptide sequences are given in Supplementary Table 1. […] Polarization at each concentration was measured as triplicates in 384-well polystyrene black microplates (Thermo Fisher Scientific 262260) by Biotek Synergy H4 multimode plate reader (light source: xenon flash, offset from top: 7 mm, sensitivity: 60%, excitation: 485/20 nm, emission: 528/20 nm, both parallel and perpendicular, normal read speed). Fraction bound (Fb) at each concentration was calculated based on the corresponding polarization values (P): Fbc=(Pc−Pmin)/(Pmax−Pmin), where Pmin is the polarization value of no-protein control and Pmax is the polarization value of the saturation value for that peptide. […]
# [3] = target: T3, KDM4A-DTD triple mutant N931D/D939R/D945R (DRR) (Homo sapiens, UniProt O75164, D939R/D945R/N931D); experiment: FP binding, KDM4A-DTD DRR mutant; settings: matrix Fig. 3c, values given in mM, pH 7.4, read-out: binding affinity (Kd), DRR mutant
# T3 construct: DNA encoding DTDs (KDM4A 895–1011aa, KDM4B 917–1031aa and KDM4C 877–991aa); (His)6-HaloTag (pFN29) or (His)6 (pET28b); made in house; host or cells: Escherichia coli BL21 (DE3)
# T3 sequence (O75164 895-1011 N931D/D939R/D945R): T1 sequence (O75164 895-1011) with N37D, D45R, D51R
# From the text: as §1, with “Plasmids encoding Xenopus laevis core histones were a generous gift of K. Luger (University of Colorado-Boulder). Site-directed mutagenesis was performed with Q5 Site-Directed Mutagenesis Kit (New England Biolabs).” left out
# as §3
# [4] = target: T4, KDM4B DTD (human KDM4B double tudor domain, 917–1031aa) (Homo sapiens, UniProt O94953); experiment: fluorescence polarization (FP) binding, KDM4B-DTD wild-type; settings: matrix Fig. 1d, pH 7.4, read-out: binding affinity (Kd), KDM4B DTD
# T4 construct: DNA encoding DTDs (KDM4A 895–1011aa, KDM4B 917–1031aa and KDM4C 877–991aa); (His)6-HaloTag (pFN29) or (His)6 (pET28b); made in house; host or cells: Escherichia coli BL21 (DE3)
# T4 sequence (O94953 917-1031): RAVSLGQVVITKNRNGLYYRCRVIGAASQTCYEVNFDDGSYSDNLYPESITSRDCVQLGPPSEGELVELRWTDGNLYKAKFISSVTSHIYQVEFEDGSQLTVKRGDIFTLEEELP
# From the text: as §1, §2
# KDM4B-DTD = experiment: biotinylated histone peptide pull-down, KDM4B-DTD; type: binding, human; settings: compared with KDM4A and KDM4C DTDs
# H3K23me3 antibody = H3K23me3 antibody profiling on histone peptide microarray; settings: scale from zero (no binding) to one (highest binding), Supplementary Fig. 5b-c
# Method: Peptide arrays were handled with care and protected from light. All solutions were filtered before putting on the array. Assays were performed with a modified two-chamber simplex gasket (Intuitive Bioscience). After tightening the gasket onto the slide surface, the peptide array was blocked with blocking solution (1 × PBS, 0.05% Tween-20 pH 7.4, 1% BSA) at 4 °C overnight, to reduce nonspecific binding. (1) Reader binding: 10–50 nM purified recombinant HT-KDM4 DTDs were first reacted with excessive HaloTag ligand-biotin (Promega) in blocking solution on ice for 15 min and incubated on peptide array under mild rocking at 4 °C, 1 h. The slide was washed with PBS with 0.05% Tween (PBST) three times and incubated with 1:2,000 streptavidin-conjugated Alexa-Fluor647 (Invitrogen) in blocking solution at room temperature for 1 h. (2) Antibody binding: after blocking, 1:2,500–1:100 dilution H3K23me3 antibody in blocking solution were incubated with peptide microarray under mild rocking at 4 °C, 1 h. The slide was washed with PBST three times and incubated with 1:1,000 anti-rabbit IgG Alexa 647 (Cell Signaling) in blocking solution at room temperature for 1 h. […] Signal intensities were quantified by GenePix Pro 6.1 software (Molecular Devices). […] For each peptide species, an average was calculated from three replicate spots. […]
# [5] = tested on: KDM4B full-length protein; experiment: MS-based demethylation assay, full-length KDM4B; type: biochemical, human; settings: 0.2 μM enzyme, 5–10 μM peptide, pH 7.5, 25 °C, MS read-out; single peptide substrates; Fig. 6a,b
# Method: In a typical demethylase reaction, the assay mixture containing 50 mM Tris pH 7.5, 50 mM NaCl, 50 μM (NH4)2Fe(SO4)2, 0.5 mM ascorbic acid, 1 mM α-ketoglutarate and 0.2 μM full-length KDM4A–C (Active Motif) was mixed with 5–10 μM of trimethylated histone peptides (detailed sequence information in Supplementary Table 1). Each peptide concentration was quantified by measuring Abs280nm for peptides containing either tryptophan or tyrosine residue. After incubation of assay mixture at 25 °C for 10, 30 and 60 min time point, 10 μl of aliquot was transferred to a clean tube containing 5 μl of 5% formic acid to quench the reaction. Each quenched sample was treated with standard StageTip protocol using C18 extraction disk (Model 2215, Empore, 3 M) to remove excess salts and detergents in the reaction mixture. Each eluate from StageTip containing peptides was dried at a reduced pressure (vacuum centrifuge) and was re-suspended with 10 μl of 5% acetonitrile solution (0.1% formic acid). The 1 μl of the sample was injected at 0.7 μl min^−1 flow rate onto a Dionex Ultimate 3000 Nano LC system equipped with Atlantis dC18 NanoEase reverse-phase column (3 μm, 100 μm × 150 mm, Waters) and coupled to a hybrid quadrupole-orbitrap MS (Q-Exactive, Thermo Scientific). The peptide was eluted at 4–15 min retention time with a linear gradient of 2–35% acetonitrile (0.1% formic acid). All the solvents used for liquid chromatography MS were HPLC grade (Fisher). For each analysis, MS1 scan range of 300–1,100 m/z was used and data-dependent MS/MS was obtained to identify the site of demethylation. Each peptide peak and its area integration was performed on the XCalibur Qual Browser.
# [6] = matrix Fig. 1d and Fig. 3c, pH 7.4, read-out: binding affinity (Kd), KDM4A DTD wild-type
# [7] = Fig. 2e,g,i,j and Fig. 4g,i, pH 7.4, ± s.d. from three experimental replicates, read-out: binding affinity, KDM4A-DTD wild-type (WT)
compound,measurement,setting,value
CC(C)C[C@H](NC(=O)[C@H](CCC(N)=O)NC(=O)[C@H](CCCCN)NC(=O)[C@H](CCCNC(=N)N)NC(=O)[C@@H]1CCCN1C(=O)[C@H](C)NC(=O)[C@H](CCCC[N+](C)(C)C)NC(=O)CNC(=O)CNC(=O)[C@@H](NC(=O)[C@H](CO)NC(=O)[C@H](CCCCN)NC(=O)[C@H](CCCNC(=N)N)NC(=O)[C@H](C)NC(=O)c1ccc2c(c1)C(=O)OC21c2ccc(O)cc2Oc2cc(O)ccc21)[C@@H](C)O)C(=O)N[C@@H](C)C(=O)N[C@H](C(=O)N[C@@H](CCCCN)C(=O)O)[C@@H](C)O [H3K14me3] (5FAM-ARKSTGG[Lys(Me3)]APRKQLATK-OH),Kd,[1]; [6],109 µM
CNCCCC[C@H](NC(=O)[C@@H](NC(=O)[C@H](C)NC(=O)[C@H](CC(C)C)NC(=O)[C@H](CCC(N)=O)NC(=O)[C@H](CCCCN)NC(=O)[C@H](CCCNC(=N)N)NC(=O)c1ccc2c(c1)C(=O)OC21c2ccc(O)cc2Oc2cc(O)ccc21)[C@@H](C)O)C(=O)N[C@@H](C)C(=O)N[C@@H](C)C(=O)N[C@@H](CCCNC(=N)N)C(=O)N[C@@H](CCCCN)C(=O)N[C@@H](CO)C(=O)N[C@@H](C)C(=O)N1CCC[C@H]1C(=O)N[C@@H](C)C(=O)N[C@H](C(=O)O)[C@@H](C)O [H3K23me1],Kd,[1]; [7],98.6 ± 5.4 µM
CC(C)C[C@H](NC(=O)[C@H](CCC(N)=O)NC(=O)[C@H](CCCCN)NC(=O)[C@H](CCCNC(=N)N)NC(=O)c1ccc2c(c1)C(=O)OC21c2ccc(O)cc2Oc2cc(O)ccc21)C(=O)N[C@@H](C)C(=O)N[C@H](C(=O)N[C@@H](CCCCN(C)C)C(=O)N[C@@H](C)C(=O)N[C@@H](C)C(=O)N[C@@H](CCCNC(=N)N)C(=O)N[C@@H](CCCCN)C(=O)N[C@@H](CO)C(=O)N[C@@H](C)C(=O)N1CCC[C@H]1C(=O)N[C@@H](C)C(=O)N[C@H](C(=O)O)[C@@H](C)O)[C@@H](C)O [H3K23me2],Kd,"[1]; pH 7.4, read-out: Kd, KDM4A-DTD wild-type",9.06 µM
CC(C)C[C@H](NC(=O)[C@H](CCC(N)=O)NC(=O)[C@H](CCCCN)NC(=O)[C@H](CCCNC(=N)N)NC(=O)c1ccc2c(c1)C(=O)OC21c2ccc(O)cc2Oc2cc(O)ccc21)C(=O)N[C@@H](C)C(=O)N[C@H](C(=O)N[C@@H](CCCC[N+](C)(C)C)C(=O)N[C@@H](C)C(=O)N[C@@H](C)C(=O)N[C@@H](C)C(=O)N[C@@H](CCCCN)C(=O)N[C@@H](CO)C(=O)N[C@@H](C)C(=O)N1CCC[C@H]1C(=O)N[C@@H](C)C(=O)N[C@H](C(=O)O)[C@@H](C)O)[C@@H](C)O [H3K23me3R26A] (5FAM-RKQLAT[Lys(Me3)]AAAKSAPAT-OH),Kd,[1]; [7],32.3 ± 1.8 µM
CC(C)C[C@H](NC(=O)[C@H](CCC(N)=O)NC(=O)[C@H](CCCCN)NC(=O)[C@H](CCCNC(=N)N)NC(=O)c1ccc2c(c1)C(=O)OC21c2ccc(O)cc2Oc2cc(O)ccc21)C(=O)N[C@@H](C)C(=O)N[C@H](C(=O)N[C@@H](CCCCN)C(=O)N[C@@H](C)C(=O)N[C@@H](C)C(=O)N[C@@H](CCCNC(=N)N)C(=O)N[C@@H](CCCC[N+](C)(C)C)C(=O)N[C@@H](CO)C(=O)N[C@@H](C)C(=O)N1CCC[C@H]1C(=O)N[C@@H](C)C(=O)N[C@H](C(=O)O)[C@@H](C)O)[C@@H](C)O [H3K27me3],Kd,[2],103 µM
same,Kd,[3],0.57 mM
same,Kd,[4],140 µM
same,Kd,[1]; [6],122 µM
CC(C)C[C@H](NC(=O)[C@H](CCC(N)=O)NC(=O)[C@H](CCCCN)NC(=O)[C@H](CCCNC(=N)N)NC(=O)c1ccc2c(c1)C(=O)OC21c2ccc(O)cc2Oc2cc(O)ccc21)C(=O)N[C@@H](C)C(=O)N[C@H](C(=O)N[C@@H](CCCC[N+](C)(C)C)C(=O)N[C@@H](C)C(=O)N[C@@H](C)C(=O)N[C@@H](CCCNC(=N)N)C(=O)N[C@@H](CCCCN)C(=O)N[C@@H](CO)C(=O)N[C@@H](C)C(=O)N1CCC[C@H]1C(=O)N[C@@H](C)C(=O)N[C@H](C(=O)O)[C@@H](C)O)[C@@H](C)OP(=O)(O)O [H3T22phK23me3],Kd,[1]; [7],83.7 ± 4.1 µM
"ARTK(Me3)QTARKSTE(PEGbiotin)W [H3K4me3 (biotinylated), H3K4me3 peptide for pull-down, PEGbiotin, in-house]",pull-down binding of KDM4B-DTD,KDM4B-DTD,Decreased
"H3K36me3: demethylation assay peptide, Tufts University Core Facility",relative signal intensity with H3K23me3 antibody,H3K23me3 antibody,less than 0.1
same,demethylation by full-length KDM4B,[5],consistent H3K36me3 demethylation
"RKQLATK(Me3)AARK(Me3)SAPATGGW [H3K23me3K27me3, demethylation assay peptide, Peptide 2.0]",demethylation by full-length KDM4B,[5],lack of measurable demethylation
"RKQLATKAARK(Me3)SAPATGGW [H3K27me3 peptide, demethylation assay peptide, Peptide 2.0]",demethylation by full-length KDM4B,[5],did not detect significant demethylation
